Measurements reported in US11479551B2, “MTA-cooperative PRMT5 inhibitors” (Mirati Therapeutics, Inc., priority 2019, dated 2022).
Read-outs that look alike come from different tables or passages of the source.

Legend:
[1] = tested on: PRMT5-dependent Symmetric Di-methyl Arginine signal in HCT116 homozygous MTAP knockout cells; test: SYM11 In-Cell Western, HCT116 MTAP knockout; type: cell-based; details: HCT116 homozygous MTAP knockout cells, 4 days of treatment, SYM11/DRAQ5 ratio, read-out: In-cell-Western (SYM11) HCT116 MTAP_KO IC50
Method: (§1) 1. HCT116 MTAP Knockout Model
(§2) HCT116 cells were genetically engineered to knock out the function of both MTAP alleles using a CRISPR/Cas9 system and an sgRNA targeting the MTAP gene. Following Cas9/MTAP sgRNA transduction, clones were screened to confirm that each allele of the MTAP gene had been inactivated (i.e., homozygous MTAP knock out) creating an MTAP-deficient cell.
(§3) Control samples were analyzed in parallel.
Briefly, on Day 0, 2,000 HCT116 parental or HCT116 homozygous MTAP knockout cells were seeded in 96 well plates in McCoy's 5A supplemented with 10% fetal bovine serum and pen/strep and the cells were incubated overnight at 37° C. plus 5% CO2. The following day, cells were treated with DMSO vehicle control or a dose response of PRMT5 inhibitors, and incubated at 37° C. plus 5% CO^2 for four days.
After 4 days of treatment, the cells were fixed by adding 50 μl of 4% paraformaldehyde solution to each well and the cells were incubated for 20 min at room temperature. The paraformaldehyde solution was removed, 150 μl of ice-cold methanol was added and the plate was placed −20° C. for 10 minutes. The methanol was removed, 150 μl of Odyssey Blocking buffer+0.05% Tween20 was added and the plate was incubated at room temperature with shaking for one hour.
The primary SYM11 antibody solution was removed by aspiration and the wells were washed three consecutive times with phosphate buffered saline containing 0.1% Tween-20 (PBST).
The secondary antibody solution was removed by aspiration and the wells were washed three consecutive times with PB ST.
The SYM11 signal and the DRAQ5 signal were quantified using a Li-Cor Odyssey machine reading at […], respectively. The SYM11/DRAQ5 ratio was used to calculate the inhibition of Symmetric Dimethyl Arginine as percent of DMSO control.

[2] = tested on: HCT116 homozygous MTAP knockout cells; test: Proliferation assay (CellTiter-Glo, 10 days of treatment), HCT116 MTAP knockout; type: cell-based; details: read-out: Proliferation HCT116MTAP_KO IC50
Method: as §1, §2, §3
Briefly, on Day 0, 250 HCT116 parental or HCT116 homozygous MTAP knockout cell were seeded in 96 well plates in McCoy's 5A supplemented with 10% fetal bovine serum and pen/strep and the cells were incubated overnight at 37° C. plus 5% CO2.
The following day, cells were treated with DMSO vehicle control or a dose response of PRMT5 inhibitors and incubated at 37 C plus 5% CO2 for five days. On Day 6, the cells were trypsinized and split 1:10 into new 96-well plates with fresh medium containing the same concentration of PRMT5 inhibitor and incubated for an additional 5 days at 37° C. plus 5% CO^2.
On Day 11, the viability of the cells was measured using a CTG assay kit (CellTiter-Glo; Promega cat.no G7573) in accordance with the manufacturer's instructions. The IC50 values for each compound after 10 days of treatment were calculated using GraphPad PRISM software.

IC50 ([1]; Homo sapiens, HCT-116, 96 h)	IC50 ([2]; Homo sapiens, HCT-116, 240 h)	IC50 [1]	IC50 [2]	SMILES
> 1000 nM	3560 nM			Cn1ncc(-c2ccc3c(=O)[nH]nc(CN)c3c2)c1-c1cn2ccccc2c1C#N [Example 4-240, 2-(4-(4-(aminomethyl)-1-oxo-1,2-dihydrophthalazin-6-yl)-1-methyl-1H-pyrazol-5-yl)indolizine-1-cathonitrile]
51 nM	285 nM			Cn1ncc(-c2ccc3c(=O)[nH]nc(CN)c3c2)c1-c1cc(Cl)cc(OC(F)F)c1C#N [Example 4-243, 2-(4-(4-(aminomethyl)-1-oxo-1,2-dihydrophthalazin-6-yl)-1-methyl-1H-pyrazol-5-yl)-4-chloro-6-(difluoromethoxy)benzonitrile]
42 nM	327 nM			Cn1ncc(-c2ccc3c(=O)[nH]nc(CN)c3c2)c1-c1sc2ncccc2c1C#N [Example 4-244, 2-(4-(4-(aminomethyl)-1-oxo-1,2-dihydrophthalazin-6-yl)-1-methyl-1H-pyrazol-5-yl)thieno[2,3-b]pyridine-3-carbonitrile]
7 nM	8 nM			Cc1c(F)c(-c2c(-c3ccc4c(=O)[nH]nc(CN)c4c3)cnn2C)c(C#N)c2ccccc12 [Example 4-245, 2-(4-(4-(aminomethyl)-1-oxo-1,2-dihydrophthalazin-6-yl)-1-methyl-1H-pyrazol-5-yl)-3-fluoro-4-methyl-1-naphthonitrile]
50 nM	72 nM			Cn1ncc(-c2ccc3c(=O)[nH]nc(CN)c3c2)c1-c1c(C(F)F)cc2ccccc2c1C#N [Example 4-246, 2-(4-(4-(aminomethyl)-1-oxo-1,2-dihydrophthalazin-6-yl)-1-methyl-1H-pyrazol-5-yl)-3-(difluoromethyl)-1-naphthonitrile]
> 1000 nM	1810 nM			Cn1nc(F)c(-c2ccc3c(=O)[nH]nc(CN)c3c2)c1-c1ccc2ccccc2c1C#N [Example 4-247, 2-(4-(4-(aminomethyl)-1-oxo-1,2-dihydrophthalazin-6-yl)-3-fluoro-1-methyl-1H-pyrazol-5-yl)-1-naphthonitrile]
> 1000 nM	1160 nM			Cn1cc2c(C#N)c(-c3c(-c4ccc5c(=O)[nH]nc(CN)c5c4)cnn3C)ccc2n1 [Example 4-248, 5-(4-(4-(aminomethyl)-1-oxo-1,2-dihydrophthalazin-6-yl)-1-methyl-1H-pyrazol-5-yl)-2-methyl-2H-indazole-4-carbonitrile]
> 1000 nM	3510 nM			Cn1ncc(-c2ccc3c(=O)[nH]nc(CN)c3c2)c1-c1ccc2c(cnn2C)c1C#N [Example 4-249, 5-(4-(4-(aminomethyl)-1-oxo-1,2-dihydrophthalazin-6-yl)-1-methyl-1H-pyrazol-5-yl)-1-methyl-1H-indazole-4-carbonitrile]
51 nM	757 nM			Cn1ncc(-c2ccc3c(=O)[nH]nc(CN)c3c2)c1-c1ccc2nscc2c1C#N [Example 4-250, 5-(4-(4-(aminomethyl)-1-oxo-1,2-dihydrophthalazin-6-yl)-1-methyl-1H-pyrazol-5-yl)benzo[c]isothiazole-4-carbonitrile]
8 nM	49 nM			Cn1ncc(-c2ccc3c(=O)[nH]nc(CN)c3c2)c1-c1c(F)ccc(OC2CC2)c1C#N [Example 4-251, 2-(4-(4-(aminomethyl)-1-oxo-1,2-dihydrophthalazin-6-yl)-1-methyl-1H-pyrazol-5-yl)-6-cyclopropoxy-3-fluorobenzonitrile]
4 nM	87 nM			Cn1ncc(-c2ccc3c(=O)[nH]nc(CN)c3c2)c1-c1cc(OC(F)(F)F)cc(OC2CC2)c1C#N [Example 4-252, 2-(4-(4-(aminomethyl)-1-oxo-1,2-dihydrophthalazin-6-yl)-1-methyl-1H-pyrazol-5-yl)-6-cyclopropoxy-4-(trifluoromethoxy)benzonitrile]
> 1000 nM	> 10000 nM			Cn1ncc(-c2ccc3c(=O)[nH]nc([C@H](N)C(F)F)c3c2)c1-c1ccc2ccccc2c1C#N [Example 9-6, 2-[4-[4-[(1S)-1-amino-2,2-difluoro-ethyl]-1-oxo-2H-phthalazin-6-yl]-2-methyl-pyrazol-3-yl]naphthalene-1-carbonitrile]
16 nM	85 nM			Cn1ncc(-c2cc(C(F)(F)F)c3c(=O)[nH]nc(CN)c3c2)c1-c1ccc2ccccc2c1C#N [Example 10-13, 2-(4-(4-(aminomethyl)-1-oxo-8-(trifluoromethyl)-1,2-dihydrophthalazin-6-yl)-1-methyl-1H-pyrazol-5-yl)-1-naphthonitrile]
75 nM	88 nM			Cn1ncc(-c2cc(Cl)c3c(=O)[nH]nc(CN)c3c2)c1-c1cccc(OC2CC2)c1C#N [Example 10-14, 2-(4-(4-(aminomethyl)-8-chloro-1-oxo-1,2-dihydrophthalazin-6-yl)-1-methyl-1H-pyrazol-5-yl)-6-cyclopropoxybenzonitrile]
4 nM	13 nM			Cc1cc(-c2cnn(C)c2-c2c(F)cc3ccccc3c2C#N)cc2c(CN)n[nH]c(=O)c12 [Example 10-15, 2-(4-(4-(aminomethyl)-8-methyl-1-oxo-1,2-dihydrophthalazin-6-yl)-1-methyl-1H-pyrazol-5-yl)-3-fluoro-1-naphthonitrile]
21 nM	21 nM			Cn1ncc(-c2cc(Cl)c3c(=O)[nH]nc(CN)c3c2)c1-c1c(F)cc2ccccc2c1C#N [Example 10-17, 2-(4-(4-(aminomethyl)-8-chloro-1-oxo-1,2-dihydrophthalazin-6-yl)-1-methyl-1H-pyrazol-5-yl)-3-fluoro-1-naphthonitrile]
185 nM	312 nM			Cc1cc(OC2CC2)c(C#N)c(-c2c(-c3cc(Cl)c4c(=O)[nH]nc(CN)c4c3)cnn2C)c1 [Example 10-19, 2-(4-(4-(aminomethyl)-8-chloro-1-oxo-1,2-dihydrophthalazin-6-yl)-1-methyl-1H-pyrazol-5-yl)-6-cyclopropoxy-4-methylbenzonitrile]
29 nM	35 nM			Cc1cc(OC2CC2)c(C#N)c(-c2c(-c3cc(Cl)c4c(=O)[nH]nc(CN)c4c3)cnn2C)c1F [Example 10-20, 2-(4-(4-(aminomethyl)-8-chloro-1-oxo-1,2-dihydrophthalazin-6-yl)-1-methyl-1H-pyrazol-5-yl)-6-cyclopropoxy-3-fluoro-4-methylbenzonitrile]
26 nM	240 nM			Cc1c(-c2c(-c3ccc4c(=O)[nH]nc(CN)c4c3)cnn2C)ccc2ccccc12 [Example 12-12, 4-(aminomethyl)-6-[1-methyl-5-(1-methyl-2-naphthyl)pyrazol-4-yl]-2H-phthalazin-1-one]
189 nM	261 nM			Cc1cc2ccccc2c(C#N)c1-c1c(-c2ccc3c(=O)[nH]nc(CN)c3c2)cnn1C [Example 12-15, 2-[4-[4-(aminomethyl)-1-oxo-2H-phthalazin-6-yl]-2-methyl-pyrazol-3-yl]-3-methyl-naphthalene-1-carbonitrile]
0.5 nM	75 nM	0.4 nM	73 nM	COc1cc2ccccc2c(C#N)c1-c1c(-c2ccc3c(=O)[nH]nc(CN)c3c2)cnn1C [Example 12-16, 2-[4-[4-(aminomethyl)-1-oxo-2H-phthalazin-6-yl]-2-methyl-pyrazol-3-yl]-3-methoxy-naphthalene-1-carbonitrile]
